In article PMC4061985 (Journal of immunology (Baltimore, Md. : 1950), 2009):
Residues, ends and D or L forms follow the SMILES beside them.

Target: HLA-DR0901 protein (Homo sapiens, UniProt P01903+P01911, A100R/A103E/D57H/D86V/F55Y/F60I/F76Y/I96F/K127E/L162R/M171V/P40D/Q125H/Q99R/R33Q/R42F/S133A/S66N/T210M/V115G/W38K/Y107V/Y59G/Y89S)
Experiment: Peptide binding competition assay, DR0901

| SMILES | Kd [nM] |
| --- | --- |
| CC[C@H](C)[C@H](NC(=O)[C@H](CCCCN)NC(=O)[C@H](CC(=O)O)NC(=O)[C@H](CC(C)C)NC(=O)[C@H](C)NC(=O)[C@H](Cc1ccc(O)cc1)NC(=O)[C@H](CC(N)=O)NC(=O)[C@H](Cc1ccccc1)NC(=O)[C@H](CC(N)=O)NC(=O)[C@@H](N)CC(C)C)C(=O)N[C@H](C(=O)N[C@H](C(=O)N[C@@H](CC(=O)O)C(=O)O)C(C)C)[C@@H](C)CC [LNFNYALDKIIVD] (H-LNFNYALDKIIVD-OH) | 55 ± 10 |
| CC[C@H](C)[C@H](NC(=O)[C@H](CCCCN)NC(=O)[C@H](CC(=O)O)NC(=O)[C@H](CC(C)C)NC(=O)[C@H](CC(=O)O)NC(=O)[C@H](Cc1ccc(O)cc1)NC(=O)[C@H](CC(N)=O)NC(=O)[C@H](Cc1ccccc1)NC(=O)[C@H](CC(N)=O)NC(=O)[C@@H](N)CC(C)C)C(=O)N[C@H](C(=O)N[C@H](C(=O)N[C@@H](CC(=O)O)C(=O)O)C(C)C)[C@@H](C)CC [LNFNYDLDKIIVD] (H-LNFNYDLDKIIVD-OH) | 1040 |
| CC[C@H](C)[C@H](NC(=O)[C@H](CCCCN)NC(=O)[C@H](CC(=O)O)NC(=O)[C@H](CC(C)C)NC(=O)[C@H](CCC(=O)O)NC(=O)[C@H](Cc1ccc(O)cc1)NC(=O)[C@H](CC(N)=O)NC(=O)[C@H](Cc1ccccc1)NC(=O)[C@H](CC(N)=O)NC(=O)[C@@H](N)CC(C)C)C(=O)N[C@H](C(=O)N[C@H](C(=O)N[C@@H](CC(=O)O)C(=O)O)C(C)C)[C@@H](C)CC [LNFNYELDKIIVD] (H-LNFNYELDKIIVD-OH) | 116000 |
| CC[C@H](C)[C@H](NC(=O)[C@H](CCCCN)NC(=O)[C@H](CC(=O)O)NC(=O)[C@H](CC(C)C)NC(=O)CNC(=O)[C@H](Cc1ccc(O)cc1)NC(=O)[C@H](CC(N)=O)NC(=O)[C@H](Cc1ccccc1)NC(=O)[C@H](CC(N)=O)NC(=O)[C@@H](N)CC(C)C)C(=O)N[C@H](C(=O)N[C@H](C(=O)N[C@@H](CC(=O)O)C(=O)O)C(C)C)[C@@H](C)CC [LNFNYGLDKIIVD] (H-LNFNYGLDKIIVD-OH) | 38 ± 5 |
| CC[C@H](C)[C@H](NC(=O)[C@H](CCCCN)NC(=O)[C@H](CC(=O)O)NC(=O)[C@H](CC(C)C)NC(=O)[C@H](Cc1c[nH]cn1)NC(=O)[C@H](Cc1ccc(O)cc1)NC(=O)[C@H](CC(N)=O)NC(=O)[C@H](Cc1ccccc1)NC(=O)[C@H](CC(N)=O)NC(=O)[C@@H](N)CC(C)C)C(=O)N[C@H](C(=O)N[C@H](C(=O)N[C@@H](CC(=O)O)C(=O)O)C(C)C)[C@@H](C)CC [LNFNYHLDKIIVD] (H-LNFNYHLDKIIVD-OH) | 80 ± 15 |
| CC[C@H](C)[C@H](NC(=O)[C@H](CCCCN)NC(=O)[C@H](CC(=O)O)NC(=O)[C@H](CC(C)C)NC(=O)[C@H](CC(C)C)NC(=O)[C@H](Cc1ccc(O)cc1)NC(=O)[C@H](CC(N)=O)NC(=O)[C@H](Cc1ccccc1)NC(=O)[C@H](CC(N)=O)NC(=O)[C@@H](N)CC(C)C)C(=O)N[C@H](C(=O)N[C@H](C(=O)N[C@@H](CC(=O)O)C(=O)O)C(C)C)[C@@H](C)CC [LNFNYLLDKIIVD] (H-LNFNYLLDKIIVD-OH) | 3600 |
| CC[C@H](C)[C@H](NC(=O)[C@H](CCCCN)NC(=O)[C@H](CC(=O)O)NC(=O)[C@H](CC(C)C)NC(=O)[C@H](CCSC)NC(=O)[C@H](Cc1ccc(O)cc1)NC(=O)[C@H](CC(N)=O)NC(=O)[C@H](Cc1ccccc1)NC(=O)[C@H](CC(N)=O)NC(=O)[C@@H](N)CC(C)C)C(=O)N[C@H](C(=O)N[C@H](C(=O)N[C@@H](CC(=O)O)C(=O)O)C(C)C)[C@@H](C)CC [LNFNYMLDKIIVD] (H-LNFNYMLDKIIVD-OH) | 146 ± 9 |
| CC[C@H](C)[C@H](NC(=O)[C@H](CCCCN)NC(=O)[C@H](CC(=O)O)NC(=O)[C@H](CC(C)C)NC(=O)[C@H](CC(N)=O)NC(=O)[C@H](Cc1ccc(O)cc1)NC(=O)[C@H](CC(N)=O)NC(=O)[C@H](Cc1ccccc1)NC(=O)[C@H](CC(N)=O)NC(=O)[C@@H](N)CC(C)C)C(=O)N[C@H](C(=O)N[C@H](C(=O)N[C@@H](CC(=O)O)C(=O)O)C(C)C)[C@@H](C)CC [LNFNYNLDKIIVD] (H-LNFNYNLDKIIVD-OH) | 290 ± 90 |
| CC[C@H](C)[C@H](NC(=O)[C@H](CCCCN)NC(=O)[C@H](CC(=O)O)NC(=O)[C@H](CC(C)C)NC(=O)[C@@H]1CCCN1C(=O)[C@H](Cc1ccc(O)cc1)NC(=O)[C@H](CC(N)=O)NC(=O)[C@H](Cc1ccccc1)NC(=O)[C@H](CC(N)=O)NC(=O)[C@@H](N)CC(C)C)C(=O)N[C@H](C(=O)N[C@H](C(=O)N[C@@H](CC(=O)O)C(=O)O)C(C)C)[C@@H](C)CC [LNFNYPLDKIIVD] (H-LNFNYPLDKIIVD-OH) | 290 ± 70 |
| CC[C@H](C)[C@H](NC(=O)[C@H](CCCCN)NC(=O)[C@H](CC(=O)O)NC(=O)[C@H](CC(C)C)NC(=O)[C@H](CCC(N)=O)NC(=O)[C@H](Cc1ccc(O)cc1)NC(=O)[C@H](CC(N)=O)NC(=O)[C@H](Cc1ccccc1)NC(=O)[C@H](CC(N)=O)NC(=O)[C@@H](N)CC(C)C)C(=O)N[C@H](C(=O)N[C@H](C(=O)N[C@@H](CC(=O)O)C(=O)O)C(C)C)[C@@H](C)CC [LNFNYQLDKIIVD] (H-LNFNYQLDKIIVD-OH) | 1500 |
| CC[C@H](C)[C@H](NC(=O)[C@H](CCCCN)NC(=O)[C@H](CC(=O)O)NC(=O)[C@H](CC(C)C)NC(=O)[C@H](CCCNC(=N)N)NC(=O)[C@H](Cc1ccc(O)cc1)NC(=O)[C@H](CC(N)=O)NC(=O)[C@H](Cc1ccccc1)NC(=O)[C@H](CC(N)=O)NC(=O)[C@@H](N)CC(C)C)C(=O)N[C@H](C(=O)N[C@H](C(=O)N[C@@H](CC(=O)O)C(=O)O)C(C)C)[C@@H](C)CC [LNFNYRLDKIIVD] (H-LNFNYRLDKIIVD-OH) | 1230 |
| CC[C@H](C)[C@H](NC(=O)[C@H](CCCCN)NC(=O)[C@H](C)NC(=O)[C@H](CC(C)C)NC(=O)[C@H](CO)NC(=O)[C@H](Cc1ccc(O)cc1)NC(=O)[C@H](CC(N)=O)NC(=O)[C@H](Cc1ccccc1)NC(=O)[C@H](CC(N)=O)NC(=O)[C@@H](N)CC(C)C)C(=O)N[C@H](C(=O)N[C@H](C(=O)N[C@@H](CC(=O)O)C(=O)O)C(C)C)[C@@H](C)CC [LNFNYSLAKIIVD] (H-LNFNYSLAKIIVD-OH) | 51 ± 18 |
| CC[C@H](C)[C@H](NC(=O)[C@H](C)NC(=O)[C@H](CC(=O)O)NC(=O)[C@H](CC(C)C)NC(=O)[C@H](CO)NC(=O)[C@H](Cc1ccc(O)cc1)NC(=O)[C@H](CC(N)=O)NC(=O)[C@H](Cc1ccccc1)NC(=O)[C@H](CC(N)=O)NC(=O)[C@@H](N)CC(C)C)C(=O)N[C@H](C(=O)N[C@H](C(=O)N[C@@H](CC(=O)O)C(=O)O)C(C)C)[C@@H](C)CC [LNFNYSLDAIIVD] (H-LNFNYSLDAIIVD-OH) | 65 ± 20 |
| CC[C@H](C)[C@H](NC(=O)[C@H](CC(=O)O)NC(=O)[C@H](CC(=O)O)NC(=O)[C@H](CC(C)C)NC(=O)[C@H](CO)NC(=O)[C@H](Cc1ccc(O)cc1)NC(=O)[C@H](CC(N)=O)NC(=O)[C@H](Cc1ccccc1)NC(=O)[C@H](CC(N)=O)NC(=O)[C@@H](N)CC(C)C)C(=O)N[C@H](C(=O)N[C@H](C(=O)N[C@@H](CC(=O)O)C(=O)O)C(C)C)[C@@H](C)CC [LNFNYSLDDIIVD] (H-LNFNYSLDDIIVD-OH) | 176 ± 65 |
| CC[C@H](C)[C@H](NC(=O)[C@H](Cc1ccccc1)NC(=O)[C@H](CC(=O)O)NC(=O)[C@H](CC(C)C)NC(=O)[C@H](CO)NC(=O)[C@H](Cc1ccc(O)cc1)NC(=O)[C@H](CC(N)=O)NC(=O)[C@H](Cc1ccccc1)NC(=O)[C@H](CC(N)=O)NC(=O)[C@@H](N)CC(C)C)C(=O)N[C@H](C(=O)N[C@H](C(=O)N[C@@H](CC(=O)O)C(=O)O)C(C)C)[C@@H](C)CC [LNFNYSLDFIIVD] (H-LNFNYSLDFIIVD-OH) | 28 ± 6 |
| CC[C@H](C)[C@H](NC(=O)[C@H](Cc1c[nH]cn1)NC(=O)[C@H](CC(=O)O)NC(=O)[C@H](CC(C)C)NC(=O)[C@H](CO)NC(=O)[C@H](Cc1ccc(O)cc1)NC(=O)[C@H](CC(N)=O)NC(=O)[C@H](Cc1ccccc1)NC(=O)[C@H](CC(N)=O)NC(=O)[C@@H](N)CC(C)C)C(=O)N[C@H](C(=O)N[C@H](C(=O)N[C@@H](CC(=O)O)C(=O)O)C(C)C)[C@@H](C)CC [LNFNYSLDHIIVD] (H-LNFNYSLDHIIVD-OH) | 29 ± 9 |
| CC[C@H](C)[C@H](NC(=O)[C@H](CCCCN)NC(=O)[C@H](CC(=O)O)NC(=O)[C@H](CC(C)C)NC(=O)[C@H](CO)NC(=O)[C@H](Cc1ccc(O)cc1)NC(=O)[C@H](CC(N)=O)NC(=O)[C@H](Cc1ccccc1)NC(=O)[C@H](CC(N)=O)NC(=O)[C@@H](N)CC(C)C)C(=O)N[C@@H](C)C(=O)N[C@H](C(=O)N[C@@H](CC(=O)O)C(=O)O)C(C)C [LNFNYSLDKIAVD] (H-LNFNYSLDKIAVD-OH) | 940 ± 250 |
| CC[C@H](C)[C@H](NC(=O)[C@H](CCCCN)NC(=O)[C@H](CC(=O)O)NC(=O)[C@H](CC(C)C)NC(=O)[C@H](CO)NC(=O)[C@H](Cc1ccc(O)cc1)NC(=O)[C@H](CC(N)=O)NC(=O)[C@H](Cc1ccccc1)NC(=O)[C@H](CC(N)=O)NC(=O)[C@@H](N)CC(C)C)C(=O)N[C@@H](CC(=O)O)C(=O)N[C@H](C(=O)N[C@@H](CC(=O)O)C(=O)O)C(C)C [LNFNYSLDKIDVD] (H-LNFNYSLDKIDVD-OH) | 790 ± 120 |
| CC[C@H](C)[C@H](NC(=O)[C@H](CCCCN)NC(=O)[C@H](CC(=O)O)NC(=O)[C@H](CC(C)C)NC(=O)[C@H](CO)NC(=O)[C@H](Cc1ccc(O)cc1)NC(=O)[C@H](CC(N)=O)NC(=O)[C@H](Cc1ccccc1)NC(=O)[C@H](CC(N)=O)NC(=O)[C@@H](N)CC(C)C)C(=O)N[C@@H](CCC(=O)O)C(=O)N[C@H](C(=O)N[C@@H](CC(=O)O)C(=O)O)C(C)C [LNFNYSLDKIEVD] (H-LNFNYSLDKIEVD-OH) | 890 ± 290 |
| CC[C@H](C)[C@H](NC(=O)[C@H](CCCCN)NC(=O)[C@H](CC(=O)O)NC(=O)[C@H](CC(C)C)NC(=O)[C@H](CO)NC(=O)[C@H](Cc1ccc(O)cc1)NC(=O)[C@H](CC(N)=O)NC(=O)[C@H](Cc1ccccc1)NC(=O)[C@H](CC(N)=O)NC(=O)[C@@H](N)CC(C)C)C(=O)N[C@@H](Cc1c[nH]cn1)C(=O)N[C@H](C(=O)N[C@@H](CC(=O)O)C(=O)O)C(C)C [LNFNYSLDKIHVD] (H-LNFNYSLDKIHVD-OH) | 740 ± 170 |
| CC[C@H](C)[C@H](NC(=O)[C@H](CCCCN)NC(=O)[C@H](CC(=O)O)NC(=O)[C@H](CC(C)C)NC(=O)[C@H](CO)NC(=O)[C@H](Cc1ccc(O)cc1)NC(=O)[C@H](CC(N)=O)NC(=O)[C@H](Cc1ccccc1)NC(=O)[C@H](CC(N)=O)NC(=O)[C@@H](N)CC(C)C)C(=O)N[C@H](C(=O)N[C@H](C(=O)N[C@@H](CC(=O)O)C(=O)O)C(C)C)[C@@H](C)CC [LNFNYSLDKIIVD] (H-LNFNYSLDKIIVD-OH) | 73 ± 16 |
